# Laboratory results as given in ChEMBL document CHEMBL5537150, “Synthesis of melampomagnolide B derivatives as potential anti-Triple Negative Breast Cancer agents” (Eur J Med Chem, 2024).
# Calls of active or inactive are those of the source. No cut-off for these calls is given here.
# What was measured:
# MDA-MB-468 [1] = assay: Induction of cell cycle arrest in human MDA-MB-468 cells assessed as increase in accumulation of cells at G2/M phase at 0.2 to 2 uM incubated for 48 hrs by RNase/PI staining based flow cytometric analysis; type: functional; conditions: dose 0.2-2 µM
# MDA-MB-231 [2] = assay: Induction of apoptosis in human MDA-MB-231 cells at 1 uM incubated for 48 hrs by annexin-V-APC/PI staining based flow cytometric analysis (reference value: 1.81 +/- 0.47 %); type: functional
# MDA-MB-468 [3] = assay: Induction of cell cycle arrest in human MDA-MB-468 cells assessed as downregulation of Cdc25c protein expression incubated for 48 hrs by Western blotting analysis; type: functional, cell-based
# MDA-MB-468 [4] = assay: Induction of cell cycle arrest in human MDA-MB-468 cells assessed as decrease in accumulation of cells at G1 phase at 0.2 to 2 uM incubated for 48 hrs by RNase/PI staining based flow cytometric analysis; type: functional; conditions: dose 0.2-2 µM
# MDA-MB-231 [5] = assay: Induction of apoptosis in human MDA-MB-231 cells at 0.5 uM incubated for 48 hrs by annexin-V-APC/PI staining based flow cytometric analysis (reference value: 1.81 +/- 0.47 %); type: functional
# MDA-MB-468 [6] = assay: Induction of apoptosis in human MDA-MB-468 cells at 0.2 uM incubated for 48 hrs by annexin-V-APC/PI staining based flow cytometric analysis (reference value: 5.38 +/- 1.63 %); type: functional
# MDA-MB-231 [7] = assay: Inhibition of NF-kappaB signalling pathway in human MDA-MB-231 cells assessed as downregulation of p65 phosphorylation at 0.5 to 2 uM incubated for 48 hrs by Western blotting analysis; type: cell-based; conditions: dose 0.5-2 µM
# MDA-MB-231 [8] = assay: Induction of cell cycle arrest in human MDA-MB-231 cells assessed as downregulation of Cyclin E1 protein expression incubated for 48 hrs by Western blotting analysis; type: functional, cell-based
# MDA-MB-231 [9] = assay: Induction of cell cycle arrest in human MDA-MB-231 cells assessed as downregulation of Cdc25c protein expression incubated for 48 hrs by Western blotting analysis; type: functional, cell-based
# MDA-MB-468 [10] = assay: Antiproliferative activity against human MDA-MB-468 cells assessed as inhibition of cell growth incubated for 72 hrs by MTT assay; type: functional, cell-based; conditions: MDA-MB-468, 72 h
# MDA-MB-468 [11] = assay: Induction of cell cycle arrest in human MDA-MB-468 cells assessed as downregulation of Cyclin E1 protein expression incubated for 48 hrs by Western blotting analysis; type: functional, cell-based
# MDA-MB-231 [12] = assay: Induction of cell cycle arrest in human MDA-MB-231 cells assessed as downregulation of Cyclin B1 protein expression incubated for 48 hrs by Western blotting analysis; type: functional, cell-based
# 4T1 [13] = assay: Antitumor activity against mouse 4T1 cells implanted in Balb/c mouse assessed as decrease in liver weight at 10 mg/kg,ip administrated every two days for 20 days; type: functional, organism-based; conditions: time 20.0 day
# MDA-MB-231 [14] = assay: Induction of cell cycle arrest in human MDA-MB-231 cells assessed as downregulation of Cdc2 protein expression incubated for 48 hrs by Western blotting analysis; type: functional, cell-based
# MDA-MB-231 [15] = assay: Antimigratory activity in human MDA-MB-231 cells assessed as downregulation of Vimentin protein expression incubated for 48 hrs by Western blotting analysis; type: functional, cell-based
# 4T1 [16] = assay: Antitumor activity against mouse 4T1 cells implanted in Balb/c mouse assessed as decrease in spleen weight at 10 mg/kg,ip administrated every two days for 20 days; type: functional, organism-based; conditions: time 20.0 day
# MDA-MB-468 [17] = assay: Antimigratory activity in human MDA-MB-468 cells assessed as downregulation of Vimentin protein expression incubated for 48 hrs by Western blotting analysis; type: functional, cell-based
# MDA-MB-231 [18] = assay: Induction of apoptosis in human MDA-MB-231 cells at 0.2 uM incubated for 48 hrs by annexin-V-APC/PI staining based flow cytometric analysis (reference value: 1.81 +/- 0.47 %); type: functional
# 4T1 [19] = assay: Antitumor activity against mouse 4T1 cells implanted in Balb/c mouse assessed as inhibition of tumor weight at 10 mg/kg,ip administrated every two days for 20 days; type: functional, organism-based; conditions: time 20.0 day
# MCF7 = assay: Antiproliferative activity against human MCF7 cells assessed as inhibition of cell growth incubated for 72 hrs by MTT assay; type: functional, cell-based; conditions: MCF7, 72 h
# MDA-MB-231 [20] = assay: Induction of cell cycle arrest in human MDA-MB-231 cells assessed as increase in accumulation of cells at G2/M phase at 0.2 to 2 uM incubated for 48 hrs by RNase/PI staining based flow cytometric analysis; type: functional; conditions: dose 0.2-2 µM
# MDA-MB-231 [21] = assay: Induction of cell cycle arrest in human MDA-MB-231 cells assessed as increase in accumulation of cells at S phase at 0.2 to 2 uM incubated for 48 hrs by RNase/PI staining based flow cytometric analysis; type: functional; conditions: dose 0.2-2 µM
# MDA-MB-231 [22] = assay: Induction of apoptosis in human MDA-MB-231 cells assessed as upregulation of Bax protein expression incubated for 48 hrs by Western blotting analysis; type: functional, cell-based
# NIH3T3 = assay: Cytotoxicity against mouse 3T3 cells at 1 uM incubated for 72 hrs by MTT assay; type: toxicity, cell-based; conditions: nih3t3, 72 h
# MDA-MB-231 [23] = assay: Induction of apoptosis in human MDA-MB-231 cells assessed as downregulation of MCL-1 protein expression incubated for 48 hrs by Western blotting analysis; type: functional, cell-based
# MDA-MB-468 [24] = assay: Induction of cell cycle arrest in human MDA-MB-468 cells assessed as downregulation of Cyclin B1 protein expression incubated for 48 hrs by Western blotting analysis; type: functional, cell-based
# MDA-MB-468 [25] = assay: Induction of apoptosis in human MDA-MB-468 cells at 1 uM incubated for 48 hrs by annexin-V-APC/PI staining based flow cytometric analysis (reference value: 5.38 +/- 1.63 %); type: functional
# MDA-MB-468 [26] = assay: Induction of cell cycle arrest in human MDA-MB-468 cells assessed as increase in accumulation of cells at S phase at 0.2 to 2 uM incubated for 48 hrs by RNase/PI staining based flow cytometric analysis; type: functional; conditions: dose 0.2-2 µM
# MDA-MB-231 [27] = assay: Induction of apoptosis in human MDA-MB-231 cells at 2 uM incubated for 48 hrs by annexin-V-APC/PI staining based flow cytometric analysis (reference value: 1.81 +/- 0.47 %); type: functional
# MDA-MB-468 [28] = assay: Induction of apoptosis in human MDA-MB-468 cells at 2 uM incubated for 48 hrs by annexin-V-APC/PI staining based flow cytometric analysis (reference value: 5.38 +/- 1.63 %); type: functional
# MDA-MB-231 [29] = assay: Antimigratory activity in human MDA-MB-231 cells assessed as downregulation of N-cadherin protein expression incubated for 48 hrs by Western blotting analysis; type: functional, cell-based
# MDA-MB-231 [30] = assay: Induction of apoptosis in human MDA-MB-231 cells assessed as downregulation of BCL-xl protein expression incubated for 48 hrs by Western blotting analysis; type: functional, cell-based
# MDA-MB-231 [31] = assay: Inhibition of NF-kappaB signalling pathway in human MDA-MB-231 cells assessed as upregulation of cytoplasmic p65 expression at 0.2 to 2 uM incubated for 48 hrs by Western blotting analysis; type: cell-based; conditions: dose 0.2-2 µM
# MDA-MB-231 [32] = assay: Antiproliferative activity against human MDA-MB-231 cells assessed as inhibition of cell growth incubated for 72 hrs by MTT assay; type: functional, cell-based; conditions: MDA-MB-231, 72 h
# SUM-159-PT = assay: Antiproliferative activity against human SUM159 cells assessed as inhibition of cell growth incubated for 72 hrs by MTT assay; type: functional, cell-based
# MDA-MB-468 [33] = assay: Induction of cell cycle arrest in human MDA-MB-468 cells assessed as downregulation of Cdc2 protein expression incubated for 48 hrs by Western blotting analysis; type: functional, cell-based
structure (smiles),measurement,setting,value
C=C1C(=O)O[C@H]2[C@H]1CC/C(COc1ccc(-c3cc(=S)ss3)cc1)=C\CC[C@@]1(C)O[C@@H]21,Activity,MDA-MB-468 [1],Active
same,Activity,MDA-MB-231 [2],11.6%
same,Activity,MDA-MB-468 [3],Dose-Dependent Effect
same,Activity,MDA-MB-468 [4],Active
same,Activity,MDA-MB-231 [5],2.3%
same,Activity,MDA-MB-468 [6],4.32%
same,inhibition,MDA-MB-231 [7],Active
same,Activity,MDA-MB-231 [8],Dose-Dependent Effect
same,Activity,MDA-MB-231 [9],Dose-Dependent Effect
same,IC50,MDA-MB-468 [10],1520 nM
same,Activity,MDA-MB-468 [11],Dose-Dependent Effect
same,Activity,MDA-MB-231 [12],Dose-Dependent Effect
same,Activity,4T1 [13],Active
same,Activity,MDA-MB-231 [14],Dose-Dependent Effect
same,Activity,MDA-MB-231 [15],Dose-Dependent Effect
same,Activity,4T1 [16],Active
same,Activity,MDA-MB-468 [17],Dose-Dependent Effect
same,Activity,MDA-MB-231 [18],2.01%
same,Activity,4T1 [19],Active
same,IC50,MCF7,3840 nM
same,Activity,MDA-MB-231 [20],Active
same,Activity,MDA-MB-231 [21],Active
same,Activity,MDA-MB-231 [22],Dose-Dependent Effect
same,Activity,NIH3T3,Toxic
same,Activity,MDA-MB-231 [23],Dose-Dependent Effect
same,Activity,MDA-MB-468 [24],Dose-Dependent Effect
same,Activity,MDA-MB-468 [25],6.4%
same,Activity,MDA-MB-468 [26],Active
same,Activity,MDA-MB-231 [27],48.24%
same,Activity,MDA-MB-468 [28],8.64%
same,Activity,MDA-MB-231 [29],Dose-Dependent Effect
same,Activity,MDA-MB-231 [30],Dose-Dependent Effect
same,inhibition,MDA-MB-231 [31],Active
same,IC50,MDA-MB-231 [32],890 nM
same,IC50,SUM-159-PT,1510 nM
same,Activity,MDA-MB-468 [33],Dose-Dependent Effect
